According to ChEMBL document CHEMBL1201862, “PubChem BioAssay data set” (2004):
Active and inactive are the calls of the source.

Tests used:
[1] = biological target: Vascular endothelial growth factor receptor 2 (Homo sapiens, UniProt P35968); format: functional
[2] = biological target: Mitogen-activated protein kinase 14 (Homo sapiens, UniProt Q16539); format: functional;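 also: part of a kinome-wide panel, MAPK14 entry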
[3] = biological target: Protein kinase C theta type (Homo sapiens, UniProt Q04759); assay: Navigating the Kinome. Panel member name: PRKCQ; format: functional
Sequence of Protein kinase C theta type (Q04759 whole entry): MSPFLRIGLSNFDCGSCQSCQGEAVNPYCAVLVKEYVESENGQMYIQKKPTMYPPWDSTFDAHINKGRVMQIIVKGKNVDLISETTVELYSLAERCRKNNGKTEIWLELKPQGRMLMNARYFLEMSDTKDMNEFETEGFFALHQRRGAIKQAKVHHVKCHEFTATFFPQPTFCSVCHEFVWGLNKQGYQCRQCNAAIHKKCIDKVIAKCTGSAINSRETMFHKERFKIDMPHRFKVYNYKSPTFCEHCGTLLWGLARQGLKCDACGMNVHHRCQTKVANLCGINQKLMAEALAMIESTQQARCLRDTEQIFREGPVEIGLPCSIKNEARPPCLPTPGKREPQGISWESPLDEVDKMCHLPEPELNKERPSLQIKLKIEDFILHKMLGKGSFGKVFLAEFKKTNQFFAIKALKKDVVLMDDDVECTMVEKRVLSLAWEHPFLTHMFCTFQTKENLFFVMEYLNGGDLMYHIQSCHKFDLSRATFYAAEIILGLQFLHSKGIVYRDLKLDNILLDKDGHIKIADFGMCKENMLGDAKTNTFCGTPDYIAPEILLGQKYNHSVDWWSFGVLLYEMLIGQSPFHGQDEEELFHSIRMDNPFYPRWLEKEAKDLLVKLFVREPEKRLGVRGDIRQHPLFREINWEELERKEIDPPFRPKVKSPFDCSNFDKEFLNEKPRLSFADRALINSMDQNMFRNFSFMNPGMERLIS

[4] = biological target: Aurora kinase A (Homo sapiens, UniProt O14965); format: functional;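 also: value from the Navigating the Kinome kinase panel profiling, panel entry STK6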
Sequence of Aurora kinase A (O14965 whole entry): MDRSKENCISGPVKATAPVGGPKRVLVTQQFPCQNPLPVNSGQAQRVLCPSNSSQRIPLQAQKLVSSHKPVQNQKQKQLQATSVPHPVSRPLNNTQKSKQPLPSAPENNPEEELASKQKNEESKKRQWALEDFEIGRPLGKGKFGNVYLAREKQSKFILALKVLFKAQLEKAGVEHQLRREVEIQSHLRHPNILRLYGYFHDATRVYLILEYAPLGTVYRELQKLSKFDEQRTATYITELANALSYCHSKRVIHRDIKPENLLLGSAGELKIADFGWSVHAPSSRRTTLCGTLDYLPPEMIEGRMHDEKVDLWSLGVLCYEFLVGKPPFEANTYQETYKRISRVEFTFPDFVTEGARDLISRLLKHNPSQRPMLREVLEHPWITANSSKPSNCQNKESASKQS

[5] = biological target: Cyclin-dependent kinase 9 (Homo sapiens, UniProt P50750); format: functional;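 also: value from the CDK9 entry of a kinome-spanning kinase panel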
[6] = biological target: cAMP-dependent protein kinase catalytic subunit alpha (Homo sapiens, UniProt P17612); format: functional
[7] = biological target: Mitogen-activated protein kinase kinase kinase kinase 4 (Homo sapiens, UniProt O95819); format: functional
[8] = biological target: Dual specificity protein kinase CLK4 (Homo sapiens, UniProt Q9HAZ1); format: functional
[9] = biological target: Leucine-rich repeat serine/threonine-protein kinase 2 (Homo sapiens, UniProt Q5S007); format: functional;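 also: value from a broad kinome-wide panel profiling study in which LRRK2 was one of the kinases tested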
Sequence of Leucine-rich repeat serine/threonine-protein kinase 2 (Q5S007 whole entry): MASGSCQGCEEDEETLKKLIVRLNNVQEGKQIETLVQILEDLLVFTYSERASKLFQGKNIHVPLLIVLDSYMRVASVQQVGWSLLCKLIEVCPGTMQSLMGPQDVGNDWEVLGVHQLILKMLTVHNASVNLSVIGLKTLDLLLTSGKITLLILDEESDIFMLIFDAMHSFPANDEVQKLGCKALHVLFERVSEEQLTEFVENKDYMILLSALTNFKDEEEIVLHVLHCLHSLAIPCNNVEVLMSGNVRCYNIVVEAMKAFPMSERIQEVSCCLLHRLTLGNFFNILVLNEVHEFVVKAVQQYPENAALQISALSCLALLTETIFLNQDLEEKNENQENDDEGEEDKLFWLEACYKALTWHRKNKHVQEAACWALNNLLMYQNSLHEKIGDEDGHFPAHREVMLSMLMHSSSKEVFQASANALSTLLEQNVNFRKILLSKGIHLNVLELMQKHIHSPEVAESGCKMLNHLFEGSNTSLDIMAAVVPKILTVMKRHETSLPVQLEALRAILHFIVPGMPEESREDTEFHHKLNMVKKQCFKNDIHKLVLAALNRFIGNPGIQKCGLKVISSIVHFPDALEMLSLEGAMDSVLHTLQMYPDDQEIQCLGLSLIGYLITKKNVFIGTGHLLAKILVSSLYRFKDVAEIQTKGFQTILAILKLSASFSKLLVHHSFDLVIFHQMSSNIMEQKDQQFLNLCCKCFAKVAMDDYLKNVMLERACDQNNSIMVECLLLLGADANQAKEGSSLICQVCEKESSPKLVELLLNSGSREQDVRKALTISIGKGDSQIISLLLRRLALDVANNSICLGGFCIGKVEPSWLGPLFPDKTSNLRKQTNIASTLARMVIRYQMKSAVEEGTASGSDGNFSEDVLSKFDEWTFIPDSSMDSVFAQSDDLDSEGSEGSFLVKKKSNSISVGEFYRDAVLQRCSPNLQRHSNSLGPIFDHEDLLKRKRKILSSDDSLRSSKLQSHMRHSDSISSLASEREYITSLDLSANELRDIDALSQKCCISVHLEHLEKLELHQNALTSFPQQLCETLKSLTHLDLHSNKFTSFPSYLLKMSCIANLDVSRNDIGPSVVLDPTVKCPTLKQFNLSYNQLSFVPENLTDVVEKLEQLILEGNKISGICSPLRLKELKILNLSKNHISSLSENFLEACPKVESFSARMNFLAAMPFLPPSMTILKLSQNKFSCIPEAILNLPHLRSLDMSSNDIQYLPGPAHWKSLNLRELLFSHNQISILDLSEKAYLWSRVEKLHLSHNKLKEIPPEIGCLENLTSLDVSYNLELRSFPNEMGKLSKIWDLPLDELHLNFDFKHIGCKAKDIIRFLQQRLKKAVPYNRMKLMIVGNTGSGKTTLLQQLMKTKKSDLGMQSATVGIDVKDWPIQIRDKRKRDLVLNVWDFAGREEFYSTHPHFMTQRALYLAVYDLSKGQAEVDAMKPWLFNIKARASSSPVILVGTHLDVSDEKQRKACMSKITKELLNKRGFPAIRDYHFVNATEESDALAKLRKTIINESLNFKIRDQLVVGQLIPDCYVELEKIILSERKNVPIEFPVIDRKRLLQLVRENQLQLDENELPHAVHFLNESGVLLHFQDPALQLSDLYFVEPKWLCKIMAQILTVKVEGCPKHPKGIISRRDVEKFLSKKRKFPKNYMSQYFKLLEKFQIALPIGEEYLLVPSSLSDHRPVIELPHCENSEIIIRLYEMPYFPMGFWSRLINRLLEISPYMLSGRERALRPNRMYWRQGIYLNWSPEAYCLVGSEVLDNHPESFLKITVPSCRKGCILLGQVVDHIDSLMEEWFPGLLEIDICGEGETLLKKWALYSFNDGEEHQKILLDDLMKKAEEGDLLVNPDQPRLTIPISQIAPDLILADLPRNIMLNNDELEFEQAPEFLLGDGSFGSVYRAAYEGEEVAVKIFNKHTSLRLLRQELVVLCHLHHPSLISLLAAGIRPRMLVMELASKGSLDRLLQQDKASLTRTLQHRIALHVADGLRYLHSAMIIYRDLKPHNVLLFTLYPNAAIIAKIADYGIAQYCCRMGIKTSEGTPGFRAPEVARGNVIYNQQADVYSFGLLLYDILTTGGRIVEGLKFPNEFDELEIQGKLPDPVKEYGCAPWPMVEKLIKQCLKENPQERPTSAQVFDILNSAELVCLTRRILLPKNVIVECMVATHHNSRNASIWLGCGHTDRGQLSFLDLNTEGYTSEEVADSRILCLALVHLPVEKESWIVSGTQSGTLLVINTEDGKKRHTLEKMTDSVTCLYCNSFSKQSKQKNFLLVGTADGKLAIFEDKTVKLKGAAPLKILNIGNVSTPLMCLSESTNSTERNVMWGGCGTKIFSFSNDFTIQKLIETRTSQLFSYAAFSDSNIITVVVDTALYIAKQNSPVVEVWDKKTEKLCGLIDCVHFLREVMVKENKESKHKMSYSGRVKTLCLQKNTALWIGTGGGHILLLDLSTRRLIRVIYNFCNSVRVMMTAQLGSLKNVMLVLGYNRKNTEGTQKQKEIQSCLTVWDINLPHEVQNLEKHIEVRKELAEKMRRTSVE

[10] = biological target: Dual specificity tyrosine-phosphorylation-regulated kinase 1A (Homo sapiens, UniProt Q13627); format: functional;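 also: measured against DYRK1A as one member of a broad kinome profiling panel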
[11] = biological target: Macrophage colony-stimulating factor 1 receptor (Homo sapiens, UniProt P07333); format: functional;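 also: value comes from the Navigating the Kinome screening panel, CSF1R member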
[12] = biological target: Platelet-derived growth factor receptor beta (Homo sapiens, UniProt P09619); format: functional;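 also: value comes from a kinome panel, with PDGFRB tested as one panel member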
[13] = biological target: Cyclin-dependent kinase 8 (Homo sapiens, UniProt P49336); assay: Navigating the Kinome. Panel member name: CDK8; format: functional
Sequence of Cyclin-dependent kinase 8 (P49336 whole entry): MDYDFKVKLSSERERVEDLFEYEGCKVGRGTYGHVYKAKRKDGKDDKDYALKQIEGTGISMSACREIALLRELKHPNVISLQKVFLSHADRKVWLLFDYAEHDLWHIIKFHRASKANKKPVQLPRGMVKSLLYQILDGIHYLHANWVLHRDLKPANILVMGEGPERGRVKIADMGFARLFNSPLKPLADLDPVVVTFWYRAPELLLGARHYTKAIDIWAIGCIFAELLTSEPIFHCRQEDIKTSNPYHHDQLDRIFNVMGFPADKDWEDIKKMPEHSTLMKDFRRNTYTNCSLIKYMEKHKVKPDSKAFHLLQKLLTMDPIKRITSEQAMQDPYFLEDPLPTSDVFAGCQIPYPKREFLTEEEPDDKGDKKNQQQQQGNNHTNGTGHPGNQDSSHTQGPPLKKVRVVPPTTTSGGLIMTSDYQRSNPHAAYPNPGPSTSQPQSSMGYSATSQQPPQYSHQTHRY

[14] = biological target: Cyclin-dependent kinase 19 (Homo sapiens, UniProt Q9BWU1); assay: Navigating the Kinome. Panel member name: CDC2L6; format: functional
[15] = biological target: DNA dC->dU-editing enzyme APOBEC-3A (Homo sapiens, UniProt P31941); assay: SAR analysis of small molecule inhibitors of APOBEC3A DNA Deaminase via a fluorescence-based single-stranded DNA deaminase assay.; format: functional; details: read-out: IC50_Mean
[16] = biological target: DNA dC->dU-editing enzyme APOBEC-3G (Homo sapiens, UniProt Q9HC16); assay: inhibition of APOBEC3G ssDNA deamination – biochemical, fluorescence, single-stranded DNA substrate, SAR follow-up (AID 602136); format: functional; details: read-out: IC50_Mean
[17] = biological target: Casein kinase I isoform delta (Homo sapiens, UniProt P48730); format: functional;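 also: measured as one member (CSNK1D) of a kinome panel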
[18] = biological target: Serine/threonine-protein kinase pim-1 (Homo sapiens, UniProt P11309); format: functional
[19] = test system: HEK293; assay: cells; details: Homo sapiens
[20] = test system: Vero; assay: cells; format: functional; details: Chlorocebus sabaeus
[21] = test system: HEK293; assay: cells; details: Homo sapiens; remark: listed apart in the source
[22] = biological target: Protein disulfide-isomerase (Homo sapiens, UniProt P07237); assay: inhibition of PDI-driven insulin aggregation – biochemical, turbidity, absorbance, cherry-picked samples, dose response (AID 602350); format: functional
[23] = biological target: T1, Insulin-degrading enzyme (Homo sapiens, UniProt P14735); assay: cellular IDE activation of Abeta substrate cleavage – fluorescence polarization, HEK cells, dose response (AID 588439); format: functional, cell-based
T1 sequence (P14735 whole entry): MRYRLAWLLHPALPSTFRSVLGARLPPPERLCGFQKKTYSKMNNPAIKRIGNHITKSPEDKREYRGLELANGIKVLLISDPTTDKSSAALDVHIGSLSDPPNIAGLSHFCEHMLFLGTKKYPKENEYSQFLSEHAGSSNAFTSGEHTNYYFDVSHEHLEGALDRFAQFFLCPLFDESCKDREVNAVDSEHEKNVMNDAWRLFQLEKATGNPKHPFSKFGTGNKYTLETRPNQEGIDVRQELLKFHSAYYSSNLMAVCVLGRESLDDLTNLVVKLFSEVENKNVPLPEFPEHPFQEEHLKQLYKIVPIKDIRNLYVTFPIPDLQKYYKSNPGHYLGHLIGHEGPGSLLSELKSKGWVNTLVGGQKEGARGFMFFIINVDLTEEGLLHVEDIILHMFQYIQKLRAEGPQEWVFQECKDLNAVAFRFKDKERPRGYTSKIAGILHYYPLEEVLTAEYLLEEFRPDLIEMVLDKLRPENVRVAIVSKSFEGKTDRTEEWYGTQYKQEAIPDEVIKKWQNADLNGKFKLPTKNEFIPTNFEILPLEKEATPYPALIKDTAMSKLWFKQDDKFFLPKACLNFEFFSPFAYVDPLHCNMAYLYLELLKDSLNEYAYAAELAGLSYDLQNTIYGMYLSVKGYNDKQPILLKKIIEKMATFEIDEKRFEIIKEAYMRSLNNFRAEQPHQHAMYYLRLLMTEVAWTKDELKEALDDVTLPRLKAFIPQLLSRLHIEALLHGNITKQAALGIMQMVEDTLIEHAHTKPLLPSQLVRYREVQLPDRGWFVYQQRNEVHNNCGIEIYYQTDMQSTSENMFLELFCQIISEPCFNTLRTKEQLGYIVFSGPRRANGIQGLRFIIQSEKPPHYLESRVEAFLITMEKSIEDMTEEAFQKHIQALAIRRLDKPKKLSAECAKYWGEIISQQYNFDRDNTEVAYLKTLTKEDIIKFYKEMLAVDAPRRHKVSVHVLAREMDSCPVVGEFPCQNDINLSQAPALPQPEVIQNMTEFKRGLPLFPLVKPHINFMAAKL

[24] = test system: HEK293; assay: optical interference in Abeta FP readout, dose response, artefact control for IDE activator project, biochemical, fluorescence polarization (AID 588442); format: functional, cell-based; details: Homo sapiens
[25] = test system: HEK293; assay: membrane integrity loss in HEK cells – cell-based, fluorescence, cytotoxicity control for IDE activator project, dose response (AID 588440); format: functional; details: Homo sapiens;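 also: cytotoxicity by LDH release measuring loss of membrane integrity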
[26] = biological target: T1, Insulin-degrading enzyme; assay: recombinant IDE activation, cell-free – biochemical, fluorescence polarization, counter-screen for IDE activator project, dose response (AID 588681)
[27] = biological target: Mitogen-activated protein kinase 9 (Homo sapiens, UniProt P45984); format: functional;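 also: value from a kinome panel profiling assay, MAPK9 panel entry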
[28] = biological target: Calcium/calmodulin-dependent protein kinase type II subunit alpha (Homo sapiens, UniProt Q9UQM7); assay: Navigating the Kinome. Panel member name: CAMK2A; format: functional
[29] = biological target: Tyrosine-protein kinase JAK3 (Homo sapiens, UniProt P52333); format: functional
[30] = biological target: ALK tyrosine kinase receptor (Homo sapiens, UniProt Q9UM73); format: functional;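 also: ALK tested as one member of a kinase panel screen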
[31] = biological target: cAMP-dependent protein kinase catalytic subunit PRKX (Homo sapiens, UniProt P51817); format: functional
[32] = biological target: Leukocyte tyrosine kinase receptor (Homo sapiens, UniProt P29376); assay: Navigating the Kinome. Panel member name: LTK; format: functional
[33] = biological target: LIM domain kinase 1 (Homo sapiens, UniProt P53667); assay: Navigating the Kinome. Panel member name: LIMK1; format: functional
[34] = biological target: Tyrosine-protein kinase Lck (Homo sapiens, UniProt P06239); format: functional;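 also: lck was assayed as one member of a kinase panel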
[35] = biological target: Macrophage-stimulating protein receptor (Homo sapiens, UniProt Q04912); assay: Navigating the Kinome. Panel member name: MST1R; format: functional
[36] = biological target: Mitogen-activated protein kinase 8 (Homo sapiens, UniProt P45983); format: functional;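 also: value comes from one member of a kinome-wide kinase profiling panel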
[37] = biological target: 5'-AMP-activated protein kinase catalytic subunit alpha-1 (Homo sapiens, UniProt Q13131); format: functional
[38] = biological target: Platelet-derived growth factor receptor alpha (Homo sapiens, UniProt P16234); assay: Navigating the Kinome. Panel member name: PDGFRA; format: functional
[39] = biological target: Activin receptor type-1 (Homo sapiens, UniProt Q04771); assay: Navigating the Kinome. Panel member name: ACVR1; format: functional
[40] = biological target: Dual specificity mitogen-activated protein kinase kinase 1 (Homo sapiens, UniProt Q02750); assay: Navigating the Kinome. Panel member name: MAP2K1; format: functional
[41] = biological target: Death-associated protein kinase 3 (Homo sapiens, UniProt O43293); format: functional;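 also: measured as one member of a kinome-wide profiling panel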
[42] = biological target: Aurora kinase B (Homo sapiens, UniProt Q96GD4); format: functional
[43] = biological target: Inhibitor of nuclear factor kappa-B kinase subunit epsilon (Homo sapiens, UniProt Q14164); assay: Navigating the Kinome. Panel member name: IKBKE; format: functional
[44] = biological target: Dual specificity mitogen-activated protein kinase kinase 2 (Homo sapiens, UniProt P36507); assay: Navigating the Kinome. Panel member name: MAP2K2; format: functional
[45] = biological target: Focal adhesion kinase 1 (Homo sapiens, UniProt Q05397); format: functional;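 also: measured as one member of a kinome panel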
[46] = biological target: Tyrosine-protein kinase receptor TYRO3 (Homo sapiens, UniProt Q06418); format: functional;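 also: TYRO3 value obtained as one member of a kinome-wide profiling panel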
[47] = biological target: Dual specificity protein kinase CLK2 (Homo sapiens, UniProt P49760); format: functional
[48] = biological target: Mitogen-activated protein kinase kinase kinase kinase 2 (Homo sapiens, UniProt Q12851); format: functional;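 also: measured as one member of a kinome-wide kinase panel, with MAP4K2 as the panel entry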
[49] = biological target: Insulin-like growth factor 1 receptor (Homo sapiens, UniProt P08069); assay: Navigating the Kinome. Panel member name: IGF1R; format: functional
[50] = biological target: Serine/threonine-protein kinase D3 (Homo sapiens, UniProt O94806); format: functional;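 also: determined within a kinase panel screen, with PRKCN as the panel member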
[51] = biological target: Rho-associated protein kinase 1 (Homo sapiens, UniProt Q13464); format: functional;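 also: measured within a broad kinome-wide panel profiling many kinases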
[52] = biological target: Serine/threonine-protein kinase PAK 4 (Homo sapiens, UniProt O96013); format: functional;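 also: value obtained within a kinome profiling panel in which PAK4 was one of the panel members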
[53] = biological target: Glycogen synthase kinase-3 beta (Homo sapiens, UniProt P49841); format: functional;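 also: value comes from a broad kinome profiling panel, with GSK3B as the panel member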
[54] = biological target: Tyrosine-protein kinase ABL1 (Homo sapiens, UniProt P00519); format: functional
[55] = biological target: Serine/threonine-protein kinase TAO1 (Homo sapiens, UniProt Q7L7X3); format: functional
[56] = biological target: Serine/threonine-protein kinase Chk1 (Homo sapiens, UniProt O14757); format: functional;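 also: measured as one member of a kinome-wide kinase profiling panel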
[57] = biological target: BDNF/NT-3 growth factors receptor (Homo sapiens, UniProt Q16620); format: functional;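 also: NTRK2 measured as one member of a broad kinome-wide kinase profiling panel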
[58] = biological target: Casein kinase I isoform alpha (Homo sapiens, UniProt P48729); format: functional
[59] = biological target: Tyrosine-protein kinase JAK2 (Homo sapiens, UniProt O60674); format: functional;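 also: JAK2 tested as one member of a kinase panel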
[60] = biological target: Activated CDC42 kinase 1 (Homo sapiens, UniProt Q07912); assay: Navigating the Kinome. Panel member name: ACK1; format: functional
[61] = biological target: Dual specificity tyrosine-phosphorylation-regulated kinase 1B (Homo sapiens, UniProt Q9Y463); assay: Navigating the Kinome. Panel member name: DYRK1B; format: functional
[62] = biological target: Serine/threonine-protein kinase TBK1 (Homo sapiens, UniProt Q9UHD2); assay: Navigating the Kinome. Panel member name: TBK1; format: functional
[63] = biological target: Vascular endothelial growth factor receptor 1 (Homo sapiens, UniProt P17948); format: functional;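 also: measured within a kinome-wide profiling panel, FLT1 as the panel member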
[64] = biological target: Cyclin-dependent kinase 5 (Homo sapiens, UniProt Q00535); format: functional;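 also: CDK5 measured as one member of a kinase profiling panel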
[65] = biological target: Cyclin-dependent kinase 7 (Homo sapiens, UniProt P50613); format: functional;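 also: value comes from a kinome-wide kinase profiling panel in which CDK7 is one member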
[66] = biological target: Tyrosine-protein kinase Fyn (Homo sapiens, UniProt P06241); format: functional
[67] = biological target: Proto-oncogene tyrosine-protein kinase receptor Ret (Homo sapiens, UniProt P07949); format: functional;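 also: measured within a kinome-wide profiling panel, RET as the panel member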
[68] = biological target: Glycogen synthase kinase-3 alpha (Homo sapiens, UniProt P49840); format: functional;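 also: GSK3A result taken from a broad kinome-wide kinase panel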
[69] = biological target: Fibroblast growth factor receptor 1 (Homo sapiens, UniProt P11362); format: functional

Structure (SMILES): C(=Cc1ccc2nccn2n1)c1ccccc1
- Ki [1]: > 100 µM (inactive)
- Ki [2]: 100 µM (active)
- Ki [3]: > 100 µM (inactive)
- Ki [4]: > 63.1 µM (inactive)
- Ki [5]: > 63.1 µM (inactive)
- Ki [6]: 5.01 µM (active)
- Ki [7]: 7.94 µM (active)
- Ki [8]: 3.98 µM (active)
- Ki [9]: 3.98 µM (active)
- Ki [10]: > 79.4 µM (inactive)
- Ki [11]: > 100 µM (inactive)
- Ki [12]: > 79.4 µM (inactive)
- Ki [13]: 12.6 µM (active)
- Ki [14]: > 100 µM (inactive)

Structure (SMILES): COc1ccc2c(Cl)c(-c3nnc(SCC(=O)c4ccc(F)cc4)n3C)sc2c1
- IC50 [15]: > 99 µM (inactive)
- IC50 [16]: > 99 µM (inactive)

Structure (SMILES): CN1CCN(Cc2ccc3c(c2)-c2n[nH]c(=O)c4cccc(c24)O3)CC1
- Ki [17]: 3.16 µM (active)
- Ki [18]: 5.01 µM (active)

Structure (SMILES): COC1/C=C/C=C(\C)Cc2cc(O)c(Cl)c(c2)N(C)C(=O)CC(OC(=O)C(C)C)C2(C)OC2C(C)C2CC1(O)NC(=O)O2 (stereo unspecified)
- EC50 [19]: > 59.7 µM (inactive)
- CC50 [20]: < 0.05 µM (active)
- EC50 [21]: > 59.7 µM (inactive)
- AC50 [22]: 9.59 µM (active)

Structure (SMILES): CCCCCc1nnc(NC(=O)C2CCCO2)s1 (stereo unspecified)
- EC50 [23]: > 54.7 µM (inactive)
- EC50 [24]: > 54.7 µM (inactive)
- IC50 [25]: > 89.1 µM (inactive)
- EC50 [26]: > 54.7 µM (inactive)

Structure (SMILES): Cc1n[nH]c2ccc(-c3cccnc3)cc12
- Ki [27]: 20 µM (active)
- Ki [18]: 7.94 µM (active)
- Ki [1]: 6.31 µM (active)
- Ki [28]: 12.6 µM (active)
- Ki [29]: 63.1 µM (active)
- Ki [30]: 12.6 µM (active)
- Ki [31]: 6.31 µM (active)
- Ki [32]: 3.16 µM (active)
- Ki [33]: 79.4 µM (active)
- Ki [34]: 63.1 µM (active)
- Ki [3]: 0.126 µM (active)
- Ki [35]: 12.6 µM (active)
- Ki [36]: 5.01 µM (active)
- Ki [4]: 15.8 µM (active)
- Ki [5]: 0.794 µM (active)
- Ki [6]: 2.51 µM (active)
- Ki [37]: 20 µM (active)
- Ki [38]: 31.6 µM (active)
- Ki [39]: 3.98 µM (active)
- Ki [40]: 10 µM (active)
- Ki [41]: 2 µM (active)
- Ki [42]: 10 µM (active)
- Ki [7]: 2.51 µM (active)
- Ki [43]: 20 µM (active)
- Ki [44]: 10 µM (active)
- Ki [45]: 25.1 µM (active)
- Ki [46]: 79.4 µM (active)
- Ki [47]: 0.0631 µM (active)
- Ki [48]: 3.98 µM (active)
- Ki [49]: 39.8 µM (active)
- Ki [50]: 2.51 µM (active)
- Ki [51]: 0.251 µM (active)
- Ki [8]: 0.002 µM (active)
- Ki [52]: 79.4 µM (active)
- Ki [9]: 0.398 µM (active)
- Ki [10]: 0.0398 µM (active)
- Ki [11]: 31.6 µM (active)
- Ki [53]: 3.98 µM (active)
- Ki [54]: 25.1 µM (active)
- Ki [55]: 50.1 µM (active)
- Ki [56]: 63.1 µM (active)
- Ki [57]: 79.4 µM (active)
- Ki [58]: 7.94 µM (active)
- Ki [59]: 7.94 µM (active)
- Ki [60]: 50.1 µM (active)
- Ki [61]: 0.0126 µM (active)
- Ki [62]: 39.8 µM (active)
- Ki [63]: 31.6 µM (active)
- Ki [64]: 0.126 µM (active)
- Ki [65]: 7.94 µM (active)
- Ki [66]: 79.4 µM (active)
- Ki [13]: 0.0251 µM (active)
- Ki [67]: 39.8 µM (active)
- Ki [68]: 3.98 µM (active)
- Ki [69]: 50.1 µM (active)
